Reference: PubChem BioAssay (NCI)
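Five compound concentrations were applied to cells in 96-well plates for 48 hours; endpoints were derived by simple linear interpolation of the resulting dose-response curve. Abbreviation: GI50, concentration required for 50% inhibition of growth. Definition used: TGI = concentration required for complete inhibition of growth.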

Legend:
Assay in all cases: NCI anticancer screen, dose series, 48 h
[1] = system: HCT-15 colon
[2] = system: NCI-H460 lung
[3] = system: A498 renal
[4] = system: SNB-75 CNS
[5] = system: A549 NSCLC
[6] = system: MDA-MB-231 breast
[7] = system: HS 578T breast
[8] = system: DU-145 prostate
[9] = system: MDA-MB-435
[10] = system: PC-3 prostate

Structure (SMILES)	TGI [1]	TGI [2]	TGI [3]	TGI [4]	TGI [5]	TGI [6]	TGI [7]	TGI [8]	TGI [9]	TGI [10]	GI50 [6]	GI50 [3]	GI50 [9]	GI50 [5]
COc1cc(/C=C/C(=O)O)ccc1C(=O)O/C=C/c1ccccc1	> 100 µM	> 100 µM	> 100 µM	> 100 µM	> 100 µM									
CCN(CC)CCOC(NC(C)=O)(c1ccccc1)c1ccccc1	> 100 µM	> 100 µM	> 100 µM	> 100 µM	> 100 µM	> 100 µM	> 100 µM	> 100 µM	> 100 µM					
O=C(Nc1cccc2cnccc12)c1cc2c(cc1Cl)Sc1nccn1S2(=O)=O	27.8 µM	24.1 µM		47.4 µM	> 100 µM	36.5 µM	73.7 µM	55.9 µM	34.1 µM	> 100 µM				
C=C(Cl)/C(=C\Cl)CCC(Br)C(C)C (stereo unspecified)		> 100 µM	> 100 µM	> 100 µM	> 100 µM	45.4 µM	> 100 µM	> 100 µM	> 100 µM	> 100 µM				
N#Cc1c(-c2ccccc2)/c(=C\Nc2ccc(Cl)cc2)c(=O)n2c1nc1ccccc12	> 100 µM	> 100 µM	> 100 µM	> 100 µM	> 100 µM	> 100 µM			> 100 µM	> 100 µM				
CCCCCCCCCC[C@H](O)[C@H]1CC[C@H]([C@H]2CC[C@H]([C@H](O)CC[C@H](O)CCCCCCC[C@@H](O)CC3=C[C@H](C)OC3=O)O2)O1	> 100 µM	> 100 µM	> 100 µM	79.7 µM	> 100 µM	> 100 µM			> 100 µM	> 100 µM	> 100 µM	89.4 µM	40.3 µM	7.18 µM
OC[C@@H](O)[C@H]1NC[C@@H](O)[C@H]1O	> 100 µM	> 100 µM	> 100 µM	> 100 µM	> 100 µM		> 100 µM	> 100 µM	> 100 µM	> 100 µM				
COc1ccc(N2C(=O)c3c4c(c5c([nH]c6ncccc65)c3C2=O)CCC(C(C)(C)C)C4)cc1 (stereo unspecified)	> 100 µM	> 100 µM		32.8 µM	> 100 µM	> 100 µM	72.2 µM	> 100 µM	> 100 µM	> 100 µM				
CC(=O)NS(=O)(=O)c1ccc(NC(=O)c2c3ccccc3nc3ccccc23)cc1	> 100 µM	> 100 µM	> 100 µM	> 100 µM	> 100 µM	> 100 µM		> 100 µM	> 100 µM	> 100 µM				
CC(C)(C)N=c1n(C(C)(C)C)oc(=O)n1C(C)(C)C	> 100 µM	> 100 µM	> 100 µM	> 100 µM	> 100 µM	> 100 µM	> 100 µM			> 100 µM				
CCCCOC(C)(C)/C=C/C(O)[C@](C)(O)[C@H]1[C@H](O)C[C@@]2(C)[C@@H]3CCc4c(cc(OC5OC(CO)C(O)C(O)C5O)c(O)c4C)C3(C)C(=O)C[C@]12C (stereo partly specified)	> 100 µM	> 100 µM	> 100 µM	> 100 µM	> 100 µM	> 100 µM		> 100 µM	> 100 µM	> 100 µM				
O=C1NCCCc2nonc21	> 100 µM	> 100 µM		> 100 µM	> 100 µM	> 100 µM	> 100 µM	> 100 µM	> 100 µM	> 100 µM				
COc1ccc(N[C@H](CSc2ccc(C)cc2)c2ccc(F)cc2)cc1	> 100 µM	> 100 µM		> 100 µM	> 100 µM	> 100 µM		> 100 µM	> 100 µM	> 100 µM				
COc1cc(C2c3cc4c(cc3OC(NN=C(C)C)C2C)OCO4)cc(OC)c1O (stereo unspecified)	> 100 µM			48.5 µM	> 100 µM	> 100 µM		> 100 µM		> 100 µM				
Cc1cc(-c2nc3c(O)cccc3s2)ccc1N	79 µM	> 100 µM		> 100 µM	47.9 µM	61.7 µM	40.8 µM	> 100 µM	38.2 µM	52.6 µM				
NC(=O)C(=O)N/N=C1/c2ccccc2CC1C1(O)C(=O)Nc2c(Cl)cc(Cl)cc21 (stereo unspecified)	> 100 µM	> 100 µM	> 100 µM	> 100 µM	> 100 µM									
CCC12C[N+]3([O-])CCc4c([nH]c5ccccc45)C(C(=O)OC)(c4cc5c(cc4OC)N(C)C4C(O)(C(=O)OC)C(OC(C)=O)C6(CC)C=CCN7CCC54C76)CC(C3)C1O2 (stereo unspecified)	24.8 µM	43.5 µM	18 µM	0.952 µM	29.9 µM									
COc1cc(/C=C2\C(=O)N(C(=O)Cc3ccccc3)N=C2C)ccc1O	> 100 µM			> 100 µM	> 100 µM									
